Measured values reported in ChEMBL document CHEMBL1201862, “PubChem BioAssay data set” (2004).
Values joined by “and” are separate entries in the source; they are usually repeats but may differ in a detail not shown here. Equal values may be shown once.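 These data come from cells grown in 96-well plates and exposed to compound for 48 hours at five concentrations. GI50: concentration for 50% inhibition of growth.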 Active and inactive are the calls of the source. Rule as the data show it: active = GI50 up to about 1.1 µM and inactive = higher.

Legend:
Assay in all cases: growth of human tumour cells (NCI), 48 h
OVCAR-5 = tested on: OVCAR-5
Hs-578T = tested on: Hs-578T
K562 = tested on: K562
SW-620 = tested on: SW-620
SF-268 = tested on: SF-268
CAKI-1 = tested on: CAKI-1
SN12C = tested on: SN12C
CCRF-CEM = tested on: CCRF-CEM
A498 = tested on: A498
HL-60 = tested on: HL-60
NCI-H226 = tested on: NCI-H226
RPMI-8226 = tested on: RPMI-8226
SF-295 = tested on: SF-295
UACC-62 = tested on: UACC-62
UACC-257 = tested on: UACC-257
LOX IMVI = tested on: LOX IMVI
U-251 = tested on: U-251
TK-10 = tested on: TK-10
RXF 393 = tested on: RXF 393
HCC 2998 = tested on: HCC 2998

Measured: GI50

CCCC1C2=C(C(=O)OC2=O)C2C(CC)CC3=C(C(=O)OC3=O)C12 (configuration not stated)
inactive: OVCAR-5 > 100 µM | Hs-578T 18.4 µM | K562 > 100 µM | SW-620 > 100 µM | SF-268 > 100 µM | CAKI-1 > 100 µM | SN12C > 100 µM | CCRF-CEM > 100 µM | A498 > 100 µM | HL-60 > 100 µM | NCI-H226 > 100 µM | RPMI-8226 > 100 µM | SF-295 > 100 µM | UACC-62 > 100 µM | UACC-257 > 100 µM | LOX IMVI > 100 µM | U-251 > 100 µM | TK-10 > 100 µM

O=c1oc2ccc([N+](=O)[O-])cc2c(Nc2ccc3c(c2)Oc2ccccc2O3)c1[N+](=O)[O-]
inactive: OVCAR-5 38 µM | RXF 393 56 µM | Hs-578T 44.3 µM | K562 30 µM | SF-268 48.1 µM | CAKI-1 28.8 µM | SN12C 32.3 µM | CCRF-CEM 30.1 µM | HL-60 21.3 µM | NCI-H226 32.4 µM | RPMI-8226 23.3 µM | SF-295 43.6 µM | UACC-62 25.6 µM | HCC 2998 27.7 µM | UACC-257 26.2 µM | LOX IMVI 31.7 µM | U-251 18.9 µM | TK-10 37.3 µM

c1cc2cc3c4c5c(cc6ccc7cc8cc9c%10c8c8c7c6c5c8c5c%10c(c1C9N1CCOCCOCCOCCOCCOCC1)c2c45)C3 (configuration not stated)
inactive: OVCAR-5 > 100 µM | RXF 393 > 100 µM | Hs-578T > 100 µM | K562 > 100 µM | SW-620 > 100 µM | SF-268 > 100 µM | SN12C > 100 µM | CCRF-CEM > 100 µM | HL-60 > 100 µM | NCI-H226 > 100 µM | RPMI-8226 > 100 µM | SF-295 > 100 µM | UACC-62 > 100 µM | HCC 2998 > 100 µM | UACC-257 > 100 µM | LOX IMVI > 100 µM | U-251 > 100 µM | TK-10 > 100 µM

CN1CCN(c2ccc3nc(C4=C(O)C(=O)[C@@H]5C(=C4O)N=C(CO)N5C)[nH]c3n2)CC1
inactive: OVCAR-5 > 100 µM | RXF 393 > 100 µM | Hs-578T > 100 µM | K562 24 µM | SW-620 > 100 µM | SF-268 74.3 µM | CAKI-1 > 100 µM | SN12C > 100 µM | CCRF-CEM 97.5 µM | HL-60 40.2 µM | NCI-H226 > 100 µM | RPMI-8226 > 100 µM | SF-295 > 100 µM | UACC-62 33.3 µM | HCC 2998 68.4 µM | UACC-257 > 100 µM | LOX IMVI 73.1 µM | U-251 41.4 µM

c1ccc2c(c1)CC1c3[nH]c4ccccc4c3CCN21 (configuration not stated)
inactive: OVCAR-5 > 10 µM | RXF 393 > 10 µM | Hs-578T > 10 µM | K562 > 10 µM | SW-620 > 10 µM | SF-268 > 10 µM | CAKI-1 > 10 µM | SN12C > 10 µM | CCRF-CEM > 10 µM | HL-60 > 10 µM | NCI-H226 > 10 µM | RPMI-8226 > 10 µM | SF-295 > 10 µM | UACC-62 > 10 µM | HCC 2998 > 10 µM | UACC-257 > 10 µM | LOX IMVI > 10 µM | U-251 > 10 µM | TK-10 > 10 µM

O=C(NC(=S)Nc1ccc(Br)cc1)c1ccc2c(c1)Sc1ccccc1O2
inactive: OVCAR-5 > 100 µM | Hs-578T 45.7 µM | K562 > 100 µM | SW-620 > 100 µM | SF-268 48.3 µM | SN12C 95.7 µM | CCRF-CEM > 100 µM | A498 27.4 µM | HL-60 > 100 µM | NCI-H226 > 100 µM | SF-295 54.5 µM | UACC-62 68.2 µM | UACC-257 > 100 µM | LOX IMVI > 100 µM | U-251 37 µM | TK-10 29.4 µM

CSCCC(NCc1c(O)ccc2ccc(=O)oc12)C(=O)O (configuration not stated)
inactive: OVCAR-5 > 100 µM | RXF 393 > 100 µM | Hs-578T 4.78 µM | K562 > 100 µM | SW-620 > 100 µM | SF-268 > 100 µM | CAKI-1 > 100 µM | SN12C > 100 µM | CCRF-CEM > 100 µM | HL-60 > 100 µM | NCI-H226 > 100 µM | RPMI-8226 > 100 µM | SF-295 > 100 µM | UACC-62 > 100 µM | HCC 2998 > 100 µM | UACC-257 > 100 µM | LOX IMVI > 100 µM | U-251 > 100 µM | TK-10 > 100 µM

COc1ccc(S(=O)(=O)c2nnc(S(=O)(=O)Cc3ccccc3)s2)cc1
inactive: OVCAR-5 25.8 µM | RXF 393 16.2 µM | Hs-578T 21.3 µM | K562 5.92 µM | SW-620 15 µM | SF-268 33.7 µM | CAKI-1 17.5 µM | SN12C 23.7 µM | A498 18.6 µM | RPMI-8226 6.59 µM | SF-295 33.3 µM | UACC-257 14.7 µM | U-251 19.5 µM | TK-10 15.7 µM

Oc1ccc(Cl)cc1C1=NC(/N=C\c2ccccc2)=NC(c2ccccc2)C1 (configuration not stated)
inactive: OVCAR-5 > 100 µM | RXF 393 66.1 µM | Hs-578T > 100 µM | K562 > 100 µM | SW-620 > 100 µM | SF-268 7.19 µM | CAKI-1 4.3 µM | SN12C 14.7 µM | CCRF-CEM > 100 µM | A498 73.6 µM | NCI-H226 37.8 µM | SF-295 > 100 µM | UACC-62 > 100 µM | UACC-257 > 100 µM | U-251 30.1 µM | TK-10 > 100 µM

CC1=CC(=O)CC2(C)CCC(C(C)CC(=O)CC(C)C)CC12OO (configuration not stated)
inactive: OVCAR-5 19.9 µM and 19.4 µM | Hs-578T 46.9 µM and 28.4 µM | K562 10.9 µM and 5.53 µM | SW-620 19 µM and 17.3 µM | SF-268 17 µM and 20 µM | CAKI-1 19.3 µM | SN12C 17.6 µM and 18.7 µM | CCRF-CEM 20.7 µM and 19.6 µM | A498 22.4 µM and 16.9 µM | HL-60 1.83 µM and 1.87 µM | NCI-H226 18.3 µM and 18.7 µM | RPMI-8226 16.6 µM and 12.5 µM | SF-295 16.4 µM and 17 µM | UACC-62 20.8 µM and 17.6 µM | UACC-257 17.7 µM and 17.3 µM | LOX IMVI 14.6 µM and 16.4 µM | U-251 19 µM and 17.6 µM | TK-10 19.3 µM and 18.7 µM

CN(C)c1ccc(/C=C/C(=O)CC(=O)/C=C/c2ccc(N(C)C)cc2)cc1
inactive: OVCAR-5 > 100 µM | RXF 393 > 100 µM | Hs-578T > 100 µM | K562 > 100 µM | SW-620 > 100 µM | SF-268 > 100 µM | CAKI-1 > 100 µM | SN12C > 100 µM | CCRF-CEM > 100 µM | HL-60 > 100 µM | NCI-H226 > 100 µM | RPMI-8226 > 100 µM | SF-295 > 100 µM | UACC-62 56.4 µM | HCC 2998 > 100 µM | LOX IMVI 15.7 µM | U-251 > 100 µM | TK-10 > 100 µM
